In patent US4517191A, “1-Amino-1,8-naphthyridine compounds useful as bactericides” (Sterling Drug Inc., priority 1983, dated 1985):
Values after ≈ are worked out from the molar mass of the structure shown.

Legend:
[1] = system: Bacteria; assay: in vitro antibacterial activity, serial dilution, stated for the bacteria as a whole; assay type: cell-based; conditions: at the highest concentrations tested (62.5-500 mcg/ml)
Experimental: (§1) The in vitro antibacterial activity of the compounds of the invention was determined by conventional serial dilution procedures. Bacterial cultures were grown in tryptose phosphate broth or brain heart infusion broth (containing heat-inactivated normal horse serum for tests with S. pyogenes) overnight at 37° C. and subsequently diluted in double strength broth to provide bacterial inocula of about 2×10^5 cells/ml. Aqueous solutions of the compounds of Formula I where R" is hydrogen were prepared by dissolving the free acid form in 0.5N sodium hydroxide. The solutions were diluted with sterile distilled water to 1000 mcg/ml of compound in terms of the free acid. Serial two-fold dilutions of the compound stock solutions were prepared in water and 0.5 ml of each dilution was transferred to sets of tubes, one set for each bacterial inoculum. Each tube was then inoculated with 0.5 ml of the appropriate culture, resulting in a final bacterial concentration of about 1×10^5 cells/ml. The minimal inhibitory concentration (MIC), defined as the lowest concentration of the test compound to inhibit visible bacterial growth, was recorded after 18-20 hours of static incubation at 37° C. The results are recorded in Table I:
These are intermediates for the compounds of Examples 5 and 7.

[2] = system: Klebsiella pneumoniae 39645; assay: in vivo antibacterial activity in infected female mice (K. pneumoniae); conditions: Klebsiella pneumoniae, 39645, sc, 336 h, K. pneumoniae i.m. infection, s.c. 17 h and 1 h preinfection, 6 h postinfection, twice a day for next three days, deaths recorded for fourteen days, read-out: Protective Dose (PD50)
Experimental: (§2) The in vivo antibacterial activity of the compounds of the invention was determined in female mice, 18-20 grams each, by the following procedure:
(§3) Aqueous solutions of the compounds of Formula I where R" is hydrogen were prepared by dissolving the free acid form in dilute sodium hydroxide and diluting the solution with distilled water to the desired volume.
(§4) Cultures of Escherichia coli Vogel prepared in brain heart infusion broth, and cultures of Klebsiella pneumoniae 39645 grown in tryptose phosphate broth with 5% rabbit serum diluted in the same broth were used to infect the mice as follows:
K. pneumoniae: mice were inoculated intramuscularly in the right hind leg with 0.2 ml of the bacterial test inoculum (2.05×10^4 cells/ml).
Mice infected with K. pneumoniae were medicated at the following times: seventeen hours and one hour preinfection, six hours postinfection and twice a day for the next three days. The test compound was administered the subcutaneous (0.2 ml) route. Deaths were recorded daily for fourteen days.
(§5) Groups of ten animals each for four or five dose levels were thus treated and the number of survivors in each group recorded. The fifty percent protective dose values (PD50) were then calculated.

[3] = system: Escherichia coli Vogel; assay: in vivo antibacterial activity in infected female mice (E. coli); conditions: sc, 168 h, E. coli i.p. infection, medicated once s.c. one-half hour post infection, deaths recorded for seven days, read-out: Protective Dose (PD50)
Experimental: as §2, §3, §4
E coli: mice were inoculated intraperitoneally with 0.5 ml of the bacerial test inoculum (1.87×10^7 and 5×10^6 cells/ml respectively).
Mice infected with E. coli were medicated once (0.5 ml) one-half hour post infection, the test compound being administered by the subcutaneous (s.c.) route. Deaths were recorded daily for seven days.
as §5

[4] = system: Klebsiella pneumoniae 39645; assay: in vitro antibacterial activity, serial dilution (MIC); assay type: cell-based; conditions: 18-20 hours at 37° C., about 1×10^5 cells/ml, read-out: Minimal Inhibitory Concentration
Experimental: as §1, with “C.” for “C. The results are recorded in Table I:”

[5] = system: Escherichia coli Vogel; assay: as above; assay type: cell-based; conditions: 18-20 hours at 37° C., about 1×10^5 cells/ml, read-out: Minimal Inhibitory Concentration
Experimental: as §1, with “C.” for “C. The results are recorded in Table I:”

[6] = system: Pseudomonas aeruginosa MGH-2; assay: as above; assay type: cell-based; conditions: MGH2, 18-20 hours at 37° C., about 1×10^5 cells/ml, read-out: Minimal Inhibitory Concentration
Experimental: as §1, with “C.” for “C. The results are recorded in Table I:”

[7] = system: Proteus mirabilis MGH-1; assay: as above; assay type: cell-based; conditions: MGH1, 18-20 hours at 37° C., about 1×10^5 cells/ml, read-out: Minimal Inhibitory Concentration
Experimental: as §1, with “C.” for “C. The results are recorded in Table I:”

[8] = system: Staphylococcus aureus Smith; assay: as above; assay type: cell-based; conditions: 18-20 hours at 37° C., about 1×10^5 cells/ml, read-out: Minimal Inhibitory Concentration
Experimental: as §1, with “C.” for “C. The results are recorded in Table I:”

[9] = system: Streptococcus pyogenes C203; assay: as above; assay type: cell-based; conditions: broth containing heat-inactivated normal horse serum, 18-20 hours at 37° C., about 1×10^5 cells/ml, read-out: Minimal Inhibitory Concentration
Experimental: as §1, with “C.” for “C. The results are recorded in Table I:”

[10] = system: Proteus vulgaris 9920; assay: as above; assay type: cell-based; conditions: 18-20 hours at 37° C., about 1×10^5 cells/ml, read-out: Minimal Inhibitory Concentration
Experimental: as §1, with “C.” for “C. The results are recorded in Table I:”

Row | SMILES | in vitro antibacterial activity [1] | ED50 [2] | ED50 [3] | MIC [4] | MIC [5] | MIC [6] | MIC [7] | MIC [8] | MIC [9] | MIC [10]
1 | CCOC(=O)c1cn(N)c2nc(C)ccc2c1=O [Example 1, Ethyl 1-amino-1,4-dihydro-7-methyl-4-oxo-1,8-naphthyridine-3-carboxylate] | inactive | – | – | – | – | – | – | – | – | –
2 | Cc1ccc2c(=O)c(C(=O)O)cn(N)c2n1 [Example 2, 1-Amino-1,4-dihydro-7-methyl-4-oxo-1,8-naphthyridine-3-carboxylic acid] | inactive | – | – | – | – | – | – | – | – | –
3 | CCOC(=O)c1cn(N(C)C=O)c2nc(C)ccc2c1=O [Example 4, Ethyl 1-(N-formylmethylamino)-1,4-dihydro-7-methyl-4-oxo-1,8-naphthyridine-3-carboxylate] | inactive | – | – | – | – | – | – | – | – | –
4 | CNn1cc(C(=O)O)c(=O)c2ccc(C)nc21 [Example 5, 1,4-Dihydro-7-methyl-1-methylamino-4-oxo-1,8-naphthyridine-3-carboxylic acid] | – | > 200 mg/kg | 141 mg/kg | 62.5 µg/mL (≈ 268 µM) | 31.3 µg/mL (≈ 134 µM) | > 500 µg/mL | 62.5 µg/mL (≈ 268 µM) | > 500 µg/mL | > 500 µg/mL | 62.5 µg/mL (≈ 268 µM)
5 | CCOC(=O)c1cn(N(C=O)CC)c2nc(C)ccc2c1=O [Example 6, Ethyl 1-(N-formylethylamino)-1,4-dihydro-7-methyl-4-oxo-1,8-naphthyridine-3-carboxylate] | inactive | > 200 mg/kg | 53.5 mg/kg | – | – | – | – | – | – | –
6 | CCNn1cc(C(=O)O)c(=O)c2ccc(C)nc21 [Example 7, 1-Ethylamino-1,4-dihydro-7-methyl-4-oxo-1,8-naphthyridine-3-carboxylic acid] | – | > 200 mg/kg | 93 mg/kg | 125 µg/mL (≈ 506 µM) | 31.3 µg/mL (≈ 127 µM) | > 500 µg/mL | 250 µg/mL (≈ 1010 µM) | > 500 µg/mL | > 500 µg/mL | 15.6 µg/mL (≈ 63.1 µM)
